{"source": "patent US8372336B2", "about": "“Polymeric corrosion inhibitors” (Akzo Nobel Chemicals International B.V., priority 2009, dated 2013)", "test": "Bubble test, corrosion inhibition performance in brine (LPR)", "conditions": "Forties synthetic brine, 55° C., CO2 saturated", "description": "Corrosion Inhibition Performance in Brine\nThe tests were carried out using the well-known “bubble test” method, see for instance the discussion in NACE International, Vol. 46, No. 5, pp 46-51 (May 2007), where the corrosion rate is monitored by linear polarisation (LPR). First a baseline corrosion rate in the medium is established, and then corrosion rates with different amounts of inhibitor added are measured.\nThe detailed conditions for the tests were as follows:\nCO2 CO2 Saturated at ambient pressure (˜0.9 bara partial pressure)\nSolution 100% Typical “Forties” (North Sea water) synthetic brine as shown below:\n• Chloride=42.539 mg/l • Sulphate=0 mg/l • Barium=173 mg/l • Calcium=1.979 mg/l • Strontium=351 mg/l • Magnesium=377 mg/l • Sodium=24.973 mg/l • Potassium=341 mg/l • Bicarbonate=200 mg/l Electrode Fabricated from AISI 1018 (UNS G10180), polished to 600 grit finish, degreased, rinsed, and dried Inhibitor Concentration 4 hour precorrosion without inhibitor, then dose with 10 or 20 mg/kg of inhibitor and evaluate corrosion rate for at least 8 h, then add inhibitor so that the next level of total inhibitor dosage is reached according to Table 1. After each addition the corrosion rate is measured for at least 8 h. Gas and partial Ambient pressure test. Maximum partial pressure 1 pressure bara (less saturated water vapour pressure at test temperature). Corrosion Monitoring LPR±10 mV step perturbation with a 2-minute time constant. A Stearn-Geary constant of 25 mV was used to calculate corrosion rates from LPR data. Corrosion rates were monitored throughout each test with a measurement taken every 30 minutes. […] The corrosion inhibitor bases were formulated as follows prior to testing: 40% base product 4% glacial acetic acid 20% n-butanol 36% water The % protection was calculated from the following equation: % protection=(1−(x/y))*100 wherein x=corrosion rate in the presence of corrosion inhibitor (mm/year) • y=corrosion rate in the absence of corrosion inhibitor (mm/year)"}
{"substance": "C12-C16 Coco benzyl quaternary amine [Quaternary amine*]", "values": [{"measurement": "% Protection", "setting": "20 ppm inhibitor", "result": "−28.3", "unit": "%"}, {"measurement": "% Protection", "setting": "50 ppm inhibitor", "result": 38.0, "unit": "%"}, {"measurement": "% Protection", "setting": "100 ppm inhibitor", "result": 97.7, "unit": "%"}]}
